According to patent publication US6180625A, “Heterocyclic compounds regulating clotting” (Novo Nordisk A/S, priority 1998, dated 2001):

target: T1, fVIIa/TF (Homo sapiens, UniProt P08709); experiment: fX activation assay; type: biochemical; conditions: 100 pM fVIIa, 5 pM TF, 175 nM fX, 5-min incubation, S-2765 substrate, read-out: IC50 TF/FVII/FX
T1 construct: Single-chain fVII may be converted to two-chain fVIIa by factor Xa, factor XIIa, factor IXa, fVIIa or thrombin in vitro
Procedure: Inhibitory Compounds are Identified in a fX Activation Assay:
The compounds are dissolved in DMSO and mixed with a solution of fVIIa in Ca^2 +-containing buffer (1+5). 30 μl of this mixture was then mixed with 45 μl TF (relipidated in PC/PS vesicles) and 25 μl of a solution containing fX, all in Ca^2 +-containing buffer. This gives final concentrations of 100 pM fVIIa, 5 pM TF, 175 nM fX and various concentrations of the compounds. After a 5-min incubation, the fVIIa/TF-catalyzed activation of fX is terminated by the addition of 50 μl buffer containing enough EDTA to give an excess over the Ca^2+ ions present. 50 μl of a 2-mM solution of S-2765 (fXa substrate) is then added and the fXa formed is allowed to hydrolyze the substrate for 10 minutes during which the absorbance at 405 nm is continuously monitored in a SPECTRAmax™ 340 plate reader. The slope of the absorption curve is compared to that of a control where DMSO alone was added to fVIIa/TF/fX.
IC50 TF/FVII/FX: The IC50 value in μM found from the FX activation assay

T1 sequence (P08709 213-466 limits assumed): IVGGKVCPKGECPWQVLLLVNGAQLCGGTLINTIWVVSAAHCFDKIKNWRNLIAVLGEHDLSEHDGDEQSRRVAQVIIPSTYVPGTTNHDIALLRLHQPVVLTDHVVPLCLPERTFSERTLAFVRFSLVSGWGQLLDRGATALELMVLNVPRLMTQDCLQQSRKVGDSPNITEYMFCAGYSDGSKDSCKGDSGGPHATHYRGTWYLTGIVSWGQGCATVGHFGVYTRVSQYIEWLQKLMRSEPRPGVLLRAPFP
T1 sequence (P08709 61-212 limits assumed): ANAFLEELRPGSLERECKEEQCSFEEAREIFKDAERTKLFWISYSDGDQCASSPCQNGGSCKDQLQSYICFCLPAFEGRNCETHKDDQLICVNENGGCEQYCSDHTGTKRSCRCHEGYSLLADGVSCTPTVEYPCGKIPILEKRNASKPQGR
T1 sequence (P13726 33-295 partner): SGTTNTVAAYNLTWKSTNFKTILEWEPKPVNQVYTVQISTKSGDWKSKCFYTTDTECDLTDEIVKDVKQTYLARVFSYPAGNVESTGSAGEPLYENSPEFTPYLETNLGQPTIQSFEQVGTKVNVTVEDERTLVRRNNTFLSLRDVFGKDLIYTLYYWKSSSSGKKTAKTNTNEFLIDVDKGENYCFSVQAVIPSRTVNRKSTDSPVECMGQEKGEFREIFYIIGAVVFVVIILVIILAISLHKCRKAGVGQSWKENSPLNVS

| Compound | IC50 [nM] |
| --- | --- |
| Cc1cccc(-c2nc3ccccc3c(=O)o2)c1 [Example 13, 2-m-Tolyl-4H-3,1-benzoxazin-4-one] | 600 |
| Cc1ccc2nc(-c3c(F)cccc3Cl)oc(=O)c2c1 [Example 41, 2-(2-Chloro-6-fluorophenyl)-6-methyl-4H-3,1-benzoxazin-4-one] | 900 |
| COc1ccc(Br)c(-c2nc3ccccc3c(=O)o2)c1 [Example 43, 2-(2-Bromo-5-methoxy-phenyl)-4H-3,1-benzoxazin-4-one] | 1100 |
| COC(=O)c1cccc2nc(-c3ccccc3F)oc(=O)c12 [Example 75, 2-(2-Fluoro-phenyl)-4-oxo-4H-benzo[d][1,3]oxazine-5-carboxylic acid methyl ester] | 5600 |
| O=c1oc(-c2ccccc2[N+](=O)[O-])nc2cccc([N+](=O)[O-])c12 [Example 83, 5-Nitro-2-(2-nitro-phenyl)-benzo[d][1,3]oxazin-4-one] | 320 |
| O=c1oc(-c2cccnc2Cl)nc2cccc([N+](=O)[O-])c12 [Example 87, 2-(2-Chloro-pyridin-3-yl)-5-nitro-benzo[d][1,3]oxazin-4-one] | 2800 |
| O=c1oc(-c2ccccc2F)nc2ccc(C(F)(F)F)cc12 [Example 95, 2-(2-Fluoro-phenyl)-6-trifluoromethyl-benzo[d][1,3]oxazin-4-one] | 3100 |
| O=c1oc(-c2c(F)cccc2F)nc2cccc(Cl)c12 [Example 116, 5-Chloro-2-(2,6-difluoro-phenyl)-benzo[d][1,3]oxazin-4-one] | 170 |

test system: not given; experiment: not given; conditions: blood; cited from earlier work

| Compound | half-life |
| --- | --- |
| heparin | approximately 80 minutes |
